Reference: ChEMBL document CHEMBL5053535, “Design, synthesis and biological evaluation of novel aminopyrazole- and 7-azaindole-based Nek1 inhibitors and their effects on zebrafish kidney development” (Bioorg Med Chem Lett, 2021)
Converted amounts (≈) assume the structure as drawn.

What was measured:
[1] = molecular target: T1, Serine/threonine-protein kinase Nek1 (Homo sapiens) (UniProt Q96PY6); assay: Inhibition of human NEK1 using myelin basic protein as substrate assessed as residual activity at 1 uM in presence of [gamma-33P]-ATP by radiometric hotspot kinase assay relative to control
T1 sequence (whole entry): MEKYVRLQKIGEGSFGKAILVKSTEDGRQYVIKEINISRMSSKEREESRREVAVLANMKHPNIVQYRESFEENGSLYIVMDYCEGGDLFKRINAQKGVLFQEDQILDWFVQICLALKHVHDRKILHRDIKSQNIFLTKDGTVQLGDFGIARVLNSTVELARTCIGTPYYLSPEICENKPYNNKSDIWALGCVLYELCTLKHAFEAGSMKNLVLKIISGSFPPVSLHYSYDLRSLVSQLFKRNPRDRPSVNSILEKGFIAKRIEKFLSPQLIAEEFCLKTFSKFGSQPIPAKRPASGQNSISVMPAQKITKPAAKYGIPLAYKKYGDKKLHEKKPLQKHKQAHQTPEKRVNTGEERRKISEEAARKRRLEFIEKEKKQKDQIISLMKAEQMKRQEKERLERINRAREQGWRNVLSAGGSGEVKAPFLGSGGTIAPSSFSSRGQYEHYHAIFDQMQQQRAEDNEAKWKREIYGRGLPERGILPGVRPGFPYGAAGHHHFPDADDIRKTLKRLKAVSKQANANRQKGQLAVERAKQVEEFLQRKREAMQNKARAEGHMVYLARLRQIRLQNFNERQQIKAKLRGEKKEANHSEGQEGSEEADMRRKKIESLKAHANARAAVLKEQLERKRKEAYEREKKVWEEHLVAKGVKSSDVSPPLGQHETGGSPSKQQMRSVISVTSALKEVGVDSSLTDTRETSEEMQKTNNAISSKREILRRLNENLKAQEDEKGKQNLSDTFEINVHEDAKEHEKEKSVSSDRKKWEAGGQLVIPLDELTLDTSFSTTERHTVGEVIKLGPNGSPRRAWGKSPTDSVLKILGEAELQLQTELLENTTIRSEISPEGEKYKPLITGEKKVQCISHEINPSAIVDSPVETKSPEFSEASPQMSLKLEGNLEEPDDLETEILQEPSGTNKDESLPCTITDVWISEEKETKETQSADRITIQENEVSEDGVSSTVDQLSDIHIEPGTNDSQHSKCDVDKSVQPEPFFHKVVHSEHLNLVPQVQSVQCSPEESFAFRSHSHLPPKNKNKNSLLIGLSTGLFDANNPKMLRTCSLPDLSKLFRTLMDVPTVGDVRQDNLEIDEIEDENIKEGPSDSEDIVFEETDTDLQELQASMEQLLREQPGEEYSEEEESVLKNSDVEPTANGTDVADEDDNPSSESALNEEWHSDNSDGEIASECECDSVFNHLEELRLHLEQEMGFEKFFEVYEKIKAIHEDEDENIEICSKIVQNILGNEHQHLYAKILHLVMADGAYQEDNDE

[2] = molecular target: T2, Serine/threonine-protein kinase Nek1 (Homo sapiens, UniProt Q96PY6); assay: Inhibition of human NEK1 using myelin basic protein as substrate assessed as residual activity in presence of [gamma-33P]-ATP by radiometric hotspot kinase assay relative to control
T2 sequence (Q96PY6 whole entry): T1 sequence (whole entry)

[3] = molecular target: Cyclin-dependent kinase 2/cyclin E1 (Homo sapiens) (UniProt P24864+P24941); assay: (§1) Inhibition of human recombinant full length C-terminal His6 tagged CDK2/ N-terminal GST-tagged Cyclin E expressed in baculovirus infected Sf21 insect cells using histone H1 as substrate assessed as residual activity at 1 uM pretreated for 20 mins followed by [33P]-ATP addition measured after 120 mins by radiometric hotspot kinase assay relative to control; conditions: time 140.0 min
[4] = molecular target: T3, Serine/threonine-protein kinase Chk1 (Homo sapiens) (UniProt O14757); assay: as §1, with “N-terminal His” for “C-terminal His6”, “CHK1” for “CDK2/ N-terminal GST-tagged Cyclin E”, “CHKtide” for “histone H1”; conditions: time 140.0 min
T3 sequence (whole entry): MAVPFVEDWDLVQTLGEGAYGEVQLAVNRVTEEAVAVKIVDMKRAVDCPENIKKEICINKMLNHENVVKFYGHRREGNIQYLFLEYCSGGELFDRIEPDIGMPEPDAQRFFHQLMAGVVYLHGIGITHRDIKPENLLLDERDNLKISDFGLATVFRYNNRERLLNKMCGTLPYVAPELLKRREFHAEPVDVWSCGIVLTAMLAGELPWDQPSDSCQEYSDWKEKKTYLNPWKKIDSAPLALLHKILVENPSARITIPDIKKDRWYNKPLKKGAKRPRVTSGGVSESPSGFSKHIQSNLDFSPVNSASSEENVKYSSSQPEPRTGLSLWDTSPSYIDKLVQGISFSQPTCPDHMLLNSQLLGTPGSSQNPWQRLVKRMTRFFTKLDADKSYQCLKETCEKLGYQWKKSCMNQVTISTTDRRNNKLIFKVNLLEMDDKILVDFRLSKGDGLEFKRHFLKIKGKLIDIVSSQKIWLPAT

[5] = molecular target: Vascular endothelial growth factor receptor 2 (Homo sapiens) (UniProt P35968); assay: Inhibition of human recombinant C-terminal His6 tagged VEGFR2 (789 to 1356 residues) expressed in baculovirus infected insect cells assessed as residual activity at 1 uM pretreated for 20 mins followed by [33P]-ATP addition measured after 120 mins by radiometric hotspot kinase assay relative to control; conditions: time 140.0 min
Sequence of Vascular endothelial growth factor receptor 2 (Homo sapiens) (P35968 whole entry, the tested form may be a part): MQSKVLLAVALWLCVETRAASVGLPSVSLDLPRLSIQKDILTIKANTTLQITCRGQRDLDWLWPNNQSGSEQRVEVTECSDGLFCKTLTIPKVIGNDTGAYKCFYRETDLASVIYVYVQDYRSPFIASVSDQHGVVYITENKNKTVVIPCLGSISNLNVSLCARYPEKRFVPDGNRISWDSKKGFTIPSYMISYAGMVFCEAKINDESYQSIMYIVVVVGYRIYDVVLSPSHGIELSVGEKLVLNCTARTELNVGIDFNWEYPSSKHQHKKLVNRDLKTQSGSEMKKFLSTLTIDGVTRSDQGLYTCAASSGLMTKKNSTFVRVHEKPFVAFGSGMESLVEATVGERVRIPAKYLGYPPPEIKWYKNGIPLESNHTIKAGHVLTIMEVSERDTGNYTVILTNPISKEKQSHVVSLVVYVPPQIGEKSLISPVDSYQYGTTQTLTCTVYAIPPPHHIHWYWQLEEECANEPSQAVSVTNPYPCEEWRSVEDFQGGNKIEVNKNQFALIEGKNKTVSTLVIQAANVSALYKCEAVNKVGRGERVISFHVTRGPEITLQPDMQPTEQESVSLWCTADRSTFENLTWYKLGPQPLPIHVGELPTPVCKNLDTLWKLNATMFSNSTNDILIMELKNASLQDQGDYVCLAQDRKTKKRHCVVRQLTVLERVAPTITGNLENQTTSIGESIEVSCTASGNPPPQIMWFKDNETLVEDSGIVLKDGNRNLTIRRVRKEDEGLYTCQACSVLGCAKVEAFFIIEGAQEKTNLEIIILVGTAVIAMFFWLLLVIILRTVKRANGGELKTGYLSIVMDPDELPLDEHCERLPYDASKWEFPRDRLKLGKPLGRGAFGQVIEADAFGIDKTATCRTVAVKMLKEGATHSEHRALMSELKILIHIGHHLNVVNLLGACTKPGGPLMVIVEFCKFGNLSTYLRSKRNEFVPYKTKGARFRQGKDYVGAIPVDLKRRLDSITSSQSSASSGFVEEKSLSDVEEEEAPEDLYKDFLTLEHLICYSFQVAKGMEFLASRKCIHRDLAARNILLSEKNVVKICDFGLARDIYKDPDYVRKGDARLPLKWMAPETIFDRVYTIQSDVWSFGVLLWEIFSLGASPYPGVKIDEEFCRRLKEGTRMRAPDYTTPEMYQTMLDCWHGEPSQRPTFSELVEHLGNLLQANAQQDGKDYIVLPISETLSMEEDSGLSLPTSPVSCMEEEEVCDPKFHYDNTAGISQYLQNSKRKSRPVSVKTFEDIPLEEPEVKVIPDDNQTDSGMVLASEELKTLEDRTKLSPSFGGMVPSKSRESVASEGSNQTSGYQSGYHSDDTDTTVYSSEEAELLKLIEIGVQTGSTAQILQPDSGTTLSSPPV

[6] = molecular target: T4, Serine/threonine-protein kinase Nek5 (Homo sapiens) (UniProt Q6P3R8); assay: Inhibition of human recombinant NEK5 assessed as residual activity at 1 uM pretreated for 20 mins followed by [33P]-ATP addition measured after 120 mins by radiometric hotspot kinase assay relative to control; conditions: time 140.0 min
T4 sequence (whole entry): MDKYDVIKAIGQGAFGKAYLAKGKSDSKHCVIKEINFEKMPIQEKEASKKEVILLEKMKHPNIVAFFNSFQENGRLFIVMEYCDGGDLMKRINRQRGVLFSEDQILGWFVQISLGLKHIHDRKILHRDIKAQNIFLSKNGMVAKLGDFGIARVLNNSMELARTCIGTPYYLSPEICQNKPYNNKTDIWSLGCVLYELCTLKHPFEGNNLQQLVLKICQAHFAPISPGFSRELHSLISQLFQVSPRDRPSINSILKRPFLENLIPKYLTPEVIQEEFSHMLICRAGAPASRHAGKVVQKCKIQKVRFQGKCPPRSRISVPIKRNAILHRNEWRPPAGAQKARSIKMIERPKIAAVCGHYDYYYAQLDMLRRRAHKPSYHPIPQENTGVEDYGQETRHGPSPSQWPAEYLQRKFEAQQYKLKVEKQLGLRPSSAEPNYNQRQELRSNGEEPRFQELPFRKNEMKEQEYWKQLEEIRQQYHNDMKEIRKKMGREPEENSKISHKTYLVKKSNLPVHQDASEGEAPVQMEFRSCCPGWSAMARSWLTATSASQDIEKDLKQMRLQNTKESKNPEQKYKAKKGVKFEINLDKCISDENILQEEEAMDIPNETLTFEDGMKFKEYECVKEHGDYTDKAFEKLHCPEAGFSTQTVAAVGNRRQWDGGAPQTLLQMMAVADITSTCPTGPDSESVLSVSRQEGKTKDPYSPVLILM

[7] = molecular target: Wee1-like protein kinase (Homo sapiens) (UniProt P30291); assay: Inhibition of human recombinant full length WEE1 expressed in insect cells using MBP as substrate assessed as residual activity at 1 uM pretreated for 20 mins followed by [33P]-ATP addition measured after 120 mins by radiometric hotspot kinase assay relative to control; conditions: time 140.0 min
Sequence of Wee1-like protein kinase (Homo sapiens) (P30291 whole entry, looked up): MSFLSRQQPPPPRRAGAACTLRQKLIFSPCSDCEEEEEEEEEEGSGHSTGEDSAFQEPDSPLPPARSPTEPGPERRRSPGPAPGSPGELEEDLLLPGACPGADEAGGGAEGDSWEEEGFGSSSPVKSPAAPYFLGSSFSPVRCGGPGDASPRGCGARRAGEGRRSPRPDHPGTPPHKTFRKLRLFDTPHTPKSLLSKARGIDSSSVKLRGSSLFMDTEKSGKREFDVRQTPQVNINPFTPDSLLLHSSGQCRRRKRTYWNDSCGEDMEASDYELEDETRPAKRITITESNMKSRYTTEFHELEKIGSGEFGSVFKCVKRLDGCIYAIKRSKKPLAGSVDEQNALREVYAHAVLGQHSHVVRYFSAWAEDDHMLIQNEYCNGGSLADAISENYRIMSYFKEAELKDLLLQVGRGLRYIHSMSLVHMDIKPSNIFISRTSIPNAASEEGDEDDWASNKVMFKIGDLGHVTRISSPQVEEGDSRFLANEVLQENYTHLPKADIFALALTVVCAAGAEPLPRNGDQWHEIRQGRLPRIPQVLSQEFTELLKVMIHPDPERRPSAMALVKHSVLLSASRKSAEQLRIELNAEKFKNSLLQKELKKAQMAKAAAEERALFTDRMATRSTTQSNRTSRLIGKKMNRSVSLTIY

[8] = Solubility of the compound in E3 medium with 0.2% DMSO by DAD-HPLC based shake flask method; format: physicochemical
[9] = Solubility of the compound in DMEM with 1% DMSO by DAD-HPLC based shake flask method; format: physicochemical
[10] = Stability of the compound in DMEM measured after 48 hrs by DAD-HPLC method; format: physicochemical; conditions: read-out: Stability
Danio rerio = species: Danio rerio; assay: Toxicity in zebra fish embryos assessed as reduction in heart beat at 1 uM measured every 24 hrs for 120 hrs; format: organism-based; conditions: zebrafish, in vivo
[11] = molecular target: T1, Serine/threonine-protein kinase Nek1 (Homo sapiens); assay: Inhibition of human NEK1 using myelin basic protein as substrate assessed as residual activity at 10 uM in presence of [gamma-33P]-ATP by radiometric hotspot kinase assay relative to control

| Compound | Activity [1] | other results |
| --- | --- | --- |
| Cc1cc(Nc2ccnc(NCc3ccccc3)n2)n[nH]1 | 95.4% |  |
| N#Cc1cccc(-c2cnc3[nH]cc(Br)c3c2)c1 | > 100% |  |
| c1ccc(-c2cnc3[nH]cc(-c4ccccc4)c3c2)cc1 | 29.3% |  |
| COC(=O)c1cccc(-c2cnc3[nH]cc(-c4cccc([N+](=O)[O-])c4)c3c2)c1 | 28.5% |  |
| Cc1cc(Nc2ccnc(N(C)Cc3ccccc3)n2)n[nH]1 | 91.8% |  |
| O=[N+]([O-])c1cccc(Nc2nccc(Nc3cc(C4CC4)[nH]n3)n2)c1 | 28.5% |  |
| N#Cc1cccc(-c2cnc3[nH]cc(Cl)c3c2)c1 | > 100% |  |
| c1ccc(Nc2nccc(Nc3cc(-c4ccccc4)[nH]n3)n2)cc1 | 65.9% |  |
| COC(=O)c1cccc(-c2cnc3[nH]cc(-c4cccc(C)c4)c3c2)c1 | 46.4% |  |
| COC(=O)c1cccc(-c2cnc3[nH]cc(-c4cccc(OC)c4)c3c2)c1 | 12.4% | IC50 [2]: 0.166 µM; Activity [3]: 19.3%; Activity [4]: > 100%; Activity [5]: 94.1%; Activity [6]: 90%; Activity [7]: > 100%; solubility [8]: 1 µM (≈ 0.358 µg/mL); solubility [9]: 2 µM (≈ 0.717 µg/mL); remaining at 48 h [10]: 97%; Activity (Danio rerio): Non-Toxic |
| N#Cc1cccc(-c2cnc3[nH]cc(-c4ccncc4)c3c2)c1 | 74.3% |  |
| Cc1cc(Nc2ccnc(NCc3ccccn3)n2)n[nH]1 | 90.8% |  |
| Cc1cc(Nc2ccnc(Nc3cccc([N+](=O)[O-])c3)n2)n[nH]1 | 36.6% |  |
| Cc1ccc(CNc2nccc(Nc3cc(C)[nH]n3)n2)cc1 | 86.8% |  |
| Cc1cc(Nc2ccnc(NCc3ccc4c(c3)OCO4)n2)n[nH]1 | 97.2% |  |
| c1ccc(-c2cnc3[nH]ccc3c2)cc1 |  | Activity [11]: 62.9% |
| Cc1cc(Nc2ccnc(NCc3cccnc3)n2)n[nH]1 | 101% |  |
| Cc1cc(Nc2ccnc(Nc3cccc4ccccc34)n2)n[nH]1 | 90.1% |  |
| N#Cc1cccc(-c2cnc3[nH]cc([N+](=O)[O-])c3c2)c1 | > 100% |  |
| CCCCNc1nccc(Nc2cc(C)[nH]n2)n1 | 86.9% |  |
| Cc1cc(Nc2ccnc(Nc3ccccc3)n2)n[nH]1 | 74.8% |  |
